Test results taken from patent US20200289514A1, “Novel Pyrazolo Pyrimidine Derivatives” (Novartis AG, priority 2015, published 2020).

Columns and labels:
[1] = target: T1, C-domain of MALT1 (amino acids 329-824) (Homo sapiens, UniProt Q9UDY8); experiment: MALT1 Biochemical Assay - Version 1 (fluorescence lifetime)
T1 sequence (Q9UDY8 329-824): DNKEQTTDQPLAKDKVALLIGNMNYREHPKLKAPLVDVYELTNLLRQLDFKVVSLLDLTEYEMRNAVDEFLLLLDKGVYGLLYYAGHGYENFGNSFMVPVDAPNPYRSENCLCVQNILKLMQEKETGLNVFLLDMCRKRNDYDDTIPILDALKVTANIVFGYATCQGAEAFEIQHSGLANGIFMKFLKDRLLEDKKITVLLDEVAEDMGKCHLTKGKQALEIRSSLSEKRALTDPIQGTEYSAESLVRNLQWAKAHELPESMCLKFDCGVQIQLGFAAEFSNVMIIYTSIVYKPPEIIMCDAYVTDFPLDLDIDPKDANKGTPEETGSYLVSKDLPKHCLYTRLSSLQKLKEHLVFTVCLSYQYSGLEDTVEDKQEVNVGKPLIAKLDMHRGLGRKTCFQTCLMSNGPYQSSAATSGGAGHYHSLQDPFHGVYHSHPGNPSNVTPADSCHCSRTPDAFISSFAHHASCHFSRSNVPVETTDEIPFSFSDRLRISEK
Experimental: The readout parameter is the increase of fluorescence lifetime over time, proportional to enzyme activity.
The assay employs a short peptide substrate labeled with the single fluorophore PT14 as a fluorescence lifetime probe sensitive to the cleavage state of the substrate (PT14: 6-(9-oxo-9H-acridin-10-yl)-hexanoate, AssayMetrics, UK). […] Test compounds were dissolved in 100% (v/v) DMSO or a mixture containing 90% (v/v) DMSO and 10% (v/v) H2O at a stock concentration of 100 mM. Serial dilutions of test compounds were prepared using either 100% (v/v) DMSO or a mixture containing 90% (v/v) DMSO and 10% (v/v) H2O.

[2] = target: T1, C-domain of MALT1 (amino acids 329-824); experiment: MALT1 Biochemical Assay - Version 2 (fluorescence intensity); set-up: C-domain of MALT1 (amino acids 329-824); conditions: fluorescence intensity readout, Rh110 substrate
Experimental: Alternatively the biochemical activity of some examples, namely example 43 and the Reference compound, were determined by measuring fluorescence intensity as described below:
MALT1 Biochemical Assay—Version 2:
The readout parameter is the increase of fluorescence intensity, proportional to enzyme activity.
The assay employs a short peptide substrate labeled with the fluorophore Rhodamine 110 (Rh110) as a fluorescence probe sensitive to the cleavage state of the substrate. The peptide substrate has the following sequence: Ac-Leu-Arg-Ser-Arg^Rh110-dPro (Product number BS-3027, Biosyntan, Germany; within the substrate sequence, A indicates the scissile bond). […] The assay was established for the 384-well plate format using black microtiter well plates. Test compounds were dissolved in 100% (v/v) DMSO or a mixture containing 90% (v/v) DMSO and 10% (v/v) H2O at a stock concentration of 100 mM. Serial dilutions of test compounds were prepared using either 100% (v/v) DMSO or a mixture containing 90% (v/v) DMSO and 10% (v/v) H2O.
y=A2+(A1−A2)/(1+(x/IC50)^ p) where y is the %-inhibition at the inhibitor concentration, x. A1 is the lowest inhibition value, and A2 the maximum inhibition value. The exponent, p, is the Hill coefficient.

Human IL2 promoter = Human IL2 promoter reporter gene assay (RGA) in Jurkat cells; type: cell-based; conditions: Jurkat clone K22 290_H23, anti-CD28 mAb + PMA, 5.5 h
Experimental: Human IL2 Promoter Reporter Gene Assay (RGA) in Jurkat Cells
The transfected Jurkat clone K22 290_H23 was propagated in RPMI 1640 supplemented with 10% heat inactivated fetal calf serum, 50 μM 2-mercaptoethanol and 1 mg/ml Geneticin. The cell concentration should not exceed 1×10e6/ml during culturing. The cells should not exceed passage 30. Prior to the assay the cells were washed and prepared to the concentration of 2×10e6 cells/ml.
Compound dilutions were made as 2×-concentrated solutions then diluted ½ by addition to cells. Two hundred and fifty μl of compound dilution and 250 μl of cells were mixed together in wells of a 96-deep well plate. Cells/compounds premix were incubated 30 min at 37° C. and 5% CO2 directly in the deep well plate.
After pre-incubation of cells with compounds, cells were stimulated with anti-CD28 mAb (clone 15E8) at 3 μg/ml+PMA at 1 μg/ml. Both co-stimulants were diluted in culture medium at a 10×-concentrated solution. 10 μl of co-stimulants were pipetted into the white 96-well plates and 100 μl of cell/compound mix was immediately added in duplicates. The cells were stimulated for 5.5 h at 37° C. and 5% CO2.
After cell stimulation, 50 μl of BriteLitePlus reagent (Perkin Elmer) was added to each well and the bioluminescence was measured with a Wallac EnVision reader (Perkin Elmer).

| IC50 [1] [nM] | IC50 [2] [nM] | IC50 (Human IL2 promoter) [nM] | SMILES |
| --- | --- | --- | --- |
| 12 | 6 |  | CC(C)[C@H](NC(=O)OCc1ccccc1)C(=O)N[C@@H](C)C(=O)N[C@@H](CC(=O)OC(C)(C)C)C(=O)COC(=O)c1c(Cl)cccc1Cl [Reference**, reference compound] |
|  | 8 | 69 | CO[C@@H](C)c1c(NC(=O)Nc2cnc(C(N)=O)c(Cl)c2)cnc2cc(F)nn12 [Example 43, (S)-3-chloro-5-(3-(2-fluoro-7-(1-methoxyethyl)pyrazolo[1,5-a]pyrimidin-6-yl)ureido)picolinamide] |
